Results reported in patent publication US20080026996A1, “Selective Vpac2 Receptor Reptide Agonists” (ELI LILLY AND COMPANY, priority 2004, published 2008).
Where a SMILES comes first, the peptide text is derived from it. Where no end group is shown, it is not given here. [ ]: non-standard residue; d: D form. The star is where a group is joined. Orn = NCCC[C@H](N)C(=O)O; Hexanoyl = CCCCCC(=O)*; Aib = CC(C)(N)C(=O)O

Key:
human VPAC2 [1] = target: T1, human VPAC2 (Homo sapiens, UniProt P41587); test: Alpha screen cAMP in vitro potency, human VPAC2 receptor; type: cell-based; conditions: cAMP generation; single result from two analyses performed in a single run; read-out: Human VPAC2 Receptor: Alpha Screen EC50
T1 construct: expressed in transfected cells
T1 sequence (P41587 24-438): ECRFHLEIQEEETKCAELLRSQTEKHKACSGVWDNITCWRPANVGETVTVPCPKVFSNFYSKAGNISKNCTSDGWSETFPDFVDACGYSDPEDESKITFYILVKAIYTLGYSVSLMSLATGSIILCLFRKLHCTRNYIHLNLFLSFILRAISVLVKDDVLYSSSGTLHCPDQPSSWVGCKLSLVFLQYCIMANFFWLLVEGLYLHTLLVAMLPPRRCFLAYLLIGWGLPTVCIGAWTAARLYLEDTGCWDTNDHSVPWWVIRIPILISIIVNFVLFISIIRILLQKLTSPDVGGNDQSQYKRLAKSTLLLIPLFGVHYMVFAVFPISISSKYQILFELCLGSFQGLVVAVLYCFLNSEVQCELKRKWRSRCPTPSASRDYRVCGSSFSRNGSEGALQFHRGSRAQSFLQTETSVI
Summary of the method: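 Stimulated cAMP accumulation is read by AlphaScreen after 60 min exposure of 50,000 non-enzymatically harvested cells to compound, followed by lysis with donor beads.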

human PAC1 = target: T2, human PAC1 (Homo sapiens, UniProt P41586); test: Filter binding assay, membranes of cells transiently transfected with human PAC1, 125I-labeled PACAP-27 tracer (Table 2); parameters: expressed in transfected cells; conditions: read-out: Human PAC1 Receptor Binding
T2 sequence (P41586 21-468): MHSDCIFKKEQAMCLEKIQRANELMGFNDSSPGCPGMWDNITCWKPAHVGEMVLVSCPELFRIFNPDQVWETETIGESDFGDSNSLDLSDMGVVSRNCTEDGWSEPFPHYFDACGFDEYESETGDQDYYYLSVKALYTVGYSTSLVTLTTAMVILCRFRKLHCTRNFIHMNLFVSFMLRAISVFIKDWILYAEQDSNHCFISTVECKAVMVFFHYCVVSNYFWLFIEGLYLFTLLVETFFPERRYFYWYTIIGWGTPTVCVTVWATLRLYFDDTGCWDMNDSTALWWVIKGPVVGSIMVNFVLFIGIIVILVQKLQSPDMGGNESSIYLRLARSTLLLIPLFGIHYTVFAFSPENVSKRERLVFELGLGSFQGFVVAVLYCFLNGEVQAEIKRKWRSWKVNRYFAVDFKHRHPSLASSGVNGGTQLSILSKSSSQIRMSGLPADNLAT
Summary of the method: (§1)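 Competition binding of agonists against radiotracer on receptor membranes (2.5 μg) in 25 mM HEPES pH 7.4 with 0.5% protease-free BSA, about 40000 cpm tracer, 1 hour with shaking. Bound tracer was separated by filtration on PEI-presoaked, BSA-blocked glass-fibre filters, washed and counted by scintillation.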

human VPAC1 = target: T3, human VPAC1 (Homo sapiens, UniProt P32241); test: Filter binding assay, membranes of cells transiently transfected with human VPAC1, 125I-labeled VIP tracer (Table 2); parameters: expressed in transfected cells; conditions: read-out: Human VPAC1 Receptor Binding
T3 sequence (P32241 31-457): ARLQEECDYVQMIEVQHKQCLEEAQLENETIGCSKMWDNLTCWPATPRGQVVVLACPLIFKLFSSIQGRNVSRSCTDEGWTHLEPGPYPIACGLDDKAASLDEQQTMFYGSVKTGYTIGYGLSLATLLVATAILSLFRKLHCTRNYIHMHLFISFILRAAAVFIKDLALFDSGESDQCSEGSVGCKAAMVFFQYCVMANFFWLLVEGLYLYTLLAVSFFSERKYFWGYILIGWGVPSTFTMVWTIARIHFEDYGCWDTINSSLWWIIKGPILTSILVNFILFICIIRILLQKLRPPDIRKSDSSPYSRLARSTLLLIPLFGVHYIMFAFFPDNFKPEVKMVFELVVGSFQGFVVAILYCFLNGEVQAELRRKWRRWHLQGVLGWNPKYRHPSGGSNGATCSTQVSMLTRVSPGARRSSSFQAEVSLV
Summary of the method: as §1

human VPAC2 [2] = target: T1, human VPAC2; test: Filter binding assay, membranes of stable VPAC2 cell line, 125I-labeled VIP tracer (Table 2); conditions: read-out: Human VPAC2 Receptor Binding
Summary of the method: as §1

[3] = Rat serum stability studies (remaining active peptide by DiscoveRx cAMP on CHO-VPAC2 cells); type: in vitro ADME
Summary of the method: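 Rat serum, 18 h: +aprotinin aliquot at 4° C, no-aprotinin aliquot at 37° C. Then 30 min RT step, supernatant removed, 1 h shaking at 300 rpm. DiscoveRx cAMP kit on CHO-VPAC2; EC50 from cAMP data vs standards.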

Compound	EC50 (human VPAC2 [1])	IC50 (human PAC1)	IC50 (human VPAC1)	IC50 (human VPAC2 [2])	Rat Serum Stability (estimated purity in % after 18 hours) [3]	Rat Serum Stability (Estimated purity in % after 72 hours) [3]
Hexanoyl-HSDAVFTDNYTRLRKQVAALKYLQSIKNKRYGGPSSGAPPPS [Agonist P151]	0.07 nM	720 nM	204 nM	0.72 nM	0.35%	
Hexanoyl-HSDAVFTDNYTRLRKQVAAKKYAQSIKNKRYGGPSSGAPPPS [Agonist P235]	0.82 nM	1110 nM	1340 nM	1.47 nM	2.62%	
Hexanoyl-HSDAVFTDNYTRL[Orn][Aib]QVAA[Aib]KYLQSIKNKRYGGPSSGAPPPS [Agonist P319]	0.26 nM	> 25000 nM	> 3000 nM	0.69 nM	13.53%	
Hexanoyl-HSDAVFTDNYTRLL[Aib]QVAA[Aib]KYLQSIKNKRYGGPSSGAPPPS [Agonist P317]	0.36 nM	> 25000 nM	> 3000 nM	1.23 nM	33.34%	21.5%
Hexanoyl-HSDAVFTDNYTRLRAQVAAQKYLQSIKNKRYGGPSSGAPPPS [Agonist P138]	0.45 nM	1110 nM	5.28 nM	1.01 nM	0.48%	
Hexanoyl-HSDAVFTDNYTRLRAQLAAQKYLQSIKNKRYGGPSSGAPPPS [Agonist P142]	0.15 nM	1190 nM	364 nM	0.58 nM	0.51%	
Hexanoyl-HSDAVFTDNYTRLRKQVAAKAYLQSIKNKRYGGPSSGAPPPS [Agonist P184]	0.22 nM	339 nM	324 nM	0.23 nM	0.29%	
Hexanoyl-HSDAVFTDNYTRLFKQVAAKKYLQSIKNKRYGGPSSGAPPPS [Agonist P175]	0.68 nM	> 25000 nM	> 3000 nM	13.3 nM	<0.11%	
Hexanoyl-HSDAVFTDNYTRLRKQVAAWKYLQSIKNKRYGGPSSGAPPPS [Agonist P153]	0.11 nM	1130 nM	181 nM	0.7 nM	<0.16%	
Hexanoyl-HSDAVFTDNYTRLRKQVAAAKYLQSIKNKRYGGPSSGAPPPS [Agonist P181]	0.13 nM	522 nM	325 nM	0.29 nM	<0.53%	
CCCCCC(=O)N[C@@H](Cc1c[nH]cn1)C(=O)N[C@@H](CO)C(=O)N[C@@H](CC(=O)O)C(=O)N[C@@H](C)C(=O)N[C@H](C(=O)N[C@@H](Cc1ccccc1)C(=O)N[C@H](C(=O)N[C@@H](CC(=O)O)C(=O)N[C@@H](CCC(N)=O)C(=O)N[C@@H](Cc1ccc(O)cc1)C(=O)N[C@H](C(=O)N[C@@H](CCCNC(=N)N)C(=O)N[C@@H](CC(C)C)C(=O)N[C@@H](CCCNC(=N)N)C(=O)N[C@@H](CCCNC(=N)N)C(=O)N[C@@H](CCC(N)=O)C(=O)N[C@H](C(=O)N[C@@H](C)C(=O)N[C@@H](C)C(=O)N[C@@H](CCCNC(=N)N)C(=O)N[C@@H](CCCCN)C(=O)N[C@@H](Cc1ccc(O)cc1)C(=O)N[C@@H](CC(C)C)C(=O)N[C@@H](CCC(N)=O)C(=O)N[C@@H](CO)C(=O)N[C@H](C(=O)N[C@@H](CCCNC(=N)N)C(=O)N[C@@H](CCC(N)=O)C(=O)NCC(=O)NCC(=O)N1CCC[C@H]1C(=O)N[C@@H](CO)C(=O)N[C@@H](CO)C(=O)NCC(=O)N[C@@H](C)C(=O)N1CCC[C@H]1C(=O)N1CCC[C@H]1C(=O)N1CCC[C@H]1C(=O)N[C@@H](CO)C(=O)O)[C@@H](C)CC)C(C)C)[C@@H](C)O)[C@@H](C)O)C(C)C [Agonist P220] (Hexanoyl-HSDAVFTDQYTRLRRQVAARKYLQSIRQGGPSSGAPPPS-OH; C-terminus assumed)	0.12 nM	849 nM	5.86 nM	0.25 nM	0.08%	
